Measured values reported in PubChem BioAssay (NCI).
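Five compound concentrations were applied to cells in 96-well plates for 48 hours; endpoints were derived by simple linear interpolation of the resulting dose-response curve. TGI marks complete inhibition of growth.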

Key:
Experiment in all cases: NCI anticancer screen, dose series, 48 h
MOLT-4 leukemia = test system: MOLT-4 leukemia
HCT-15 colon = test system: HCT-15 colon
SK-MEL-2 melanoma = test system: SK-MEL-2 melanoma
UACC-257 melanoma = test system: UACC-257 melanoma
PC-3 prostate = test system: PC-3 prostate
A498 renal = test system: A498 renal
IGROV1 ovarian = test system: IGROV1 ovarian
SK-MEL-5 melanoma = test system: SK-MEL-5 melanoma
HT29 colon = test system: HT29 colon
SF-295 CNS = test system: SF-295 CNS
NCI-H522 lung = test system: NCI-H522 lung
SF-268 CNS = test system: SF-268 CNS
ACHN renal = test system: ACHN renal
SNB-19 CNS = test system: SNB-19 CNS
NCI/ADR-RES ovarian = test system: NCI/ADR-RES ovarian
LOX IMVI melanoma = test system: LOX IMVI melanoma
COLO 205 colon = test system: COLO 205 colon
A549 NSCLC = test system: A549 NSCLC
NCI-H23 lung = test system: NCI-H23 lung
HOP-92 NSCLC = test system: HOP-92 NSCLC
SK-MEL-28 melanoma = test system: SK-MEL-28 melanoma
HL-60(TB) leukemia = test system: HL-60(TB) leukemia
K-562 leukemia = test system: K-562 leukemia
HOP-62 NSCLC = test system: HOP-62 NSCLC
EKVX NSCLC = test system: EKVX NSCLC
MDA-MB-231 breast = test system: MDA-MB-231 breast
SNB-75 CNS = test system: SNB-75 CNS
MDA-MB-435 = test system: MDA-MB-435
DU-145 prostate = test system: DU-145 prostate
M14 melanoma = test system: M14 melanoma
SN12C renal = test system: SN12C renal
786-0 renal = test system: 786-0 renal
UO-31 renal = test system: UO-31 renal
T-47D breast = test system: T-47D breast
BT-549 breast = test system: BT-549 breast
KM12 colon = test system: KM12 colon
RPMI-8226 leukemia = test system: RPMI-8226 leukemia
UACC-62 melanoma = test system: UACC-62 melanoma
HCC-2998 colon = test system: HCC-2998 colon
TK-10 renal = test system: TK-10 renal
SK-OV-3 ovarian = test system: SK-OV-3 ovarian
MDA-N = test system: MDA-N
U251 CNS = test system: U251 CNS
OVCAR-8 ovarian = test system: OVCAR-8 ovarian
OVCAR-5 ovarian = test system: OVCAR-5 ovarian
NCI-H226 lung = test system: NCI-H226 lung
SR leukemia = test system: SR leukemia
HCT-116 colon = test system: HCT-116 colon
HS 578T breast = test system: HS 578T breast
OVCAR-4 ovarian = test system: OVCAR-4 ovarian
MCF7 breast = test system: MCF7 breast
CCRF-CEM leukemia = test system: CCRF-CEM leukemia
CAKI-1 renal = test system: CAKI-1 renal
RXF 393 renal = test system: RXF 393 renal
SW-620 colon = test system: SW-620 colon
NCI-H460 lung = test system: NCI-H460 lung
MALME-3M melanoma = test system: MALME-3M melanoma
SF-539 CNS = test system: SF-539 CNS
OVCAR-3 ovarian = test system: OVCAR-3 ovarian

Measured: TGI

COc1cccc(N2C(=O)/C(=C\c3ccccc3)SC2c2cc(OC)c(OC)c(OC)c2)c1 (stereo not drawn)
94.3 µM: T-47D breast
57.3 µM: SNB-75 CNS
67.7 µM: A498 renal
40.5 µM: MDA-N
not listed: RXF 393 renal | SW-620 colon | NCI-H460 lung | MALME-3M melanoma | SF-539 CNS | OVCAR-3 ovarian
> 100 µM: all other assays above

COC(=O)C(Cc1ccc(Oc2cc(CC(NC(=O)c3ccccc3)C(=O)OC)ccc2OC)cc1)NC(=O)c1ccccc1 (stereo not drawn)
> 64.5 µM: NCI-H226 lung
> 55 µM: ACHN renal
> 78.8 µM: MDA-MB-231 breast
> 73.2 µM: COLO 205 colon
29.8 µM: MALME-3M melanoma
> 72.5 µM: OVCAR-4 ovarian
> 65.1 µM: HOP-92 NSCLC
> 59.8 µM: TK-10 renal
> 63.5 µM: MDA-MB-435
27.2 µM: NCI-H522 lung
> 86.9 µM: EKVX NSCLC
42.7 µM: UACC-62 melanoma
61.8 µM: HS 578T breast
48.9 µM: SF-268 CNS
> 50.3 µM: DU-145 prostate
34 µM: MDA-N
28.5 µM: RXF 393 renal
> 87.3 µM: OVCAR-3 ovarian
30 µM: 786-0 renal
23.8 µM: UACC-257 melanoma
> 71.6 µM: LOX IMVI melanoma
> 85.8 µM: PC-3 prostate
20.9 µM: M14 melanoma
21.3 µM: SN12C renal
> 60.2 µM: SF-539 CNS
> 69.3 µM: RPMI-8226 leukemia
> 81.3 µM: BT-549 breast
> 52.4 µM: SK-MEL-28 melanoma
24.2 µM: UO-31 renal
> 74 µM: SK-MEL-2 melanoma
> 60.9 µM: OVCAR-8 ovarian
32.9 µM: SK-MEL-5 melanoma
> 51.4 µM: T-47D breast
> 82.2 µM: NCI-H23 lung
> 57.3 µM: HL-60(TB) leukemia
not listed: SR leukemia | CCRF-CEM leukemia
> 100 µM: all other assays above

C=CCN1C(=O)/C(=C/c2ccc(C)cc2)NC1=S
48.9 µM: HL-60(TB) leukemia
97.1 µM: EKVX NSCLC
not listed: MALME-3M melanoma
> 100 µM: all other assays above
